# Values quoted from earlier work in US20240100019A1, “COMPOSITIONS COMPRISING A THERMOREVERSIBLE HYDROGEL, AND HAVING AN EXTENDED IN-USE PERIOD” (UroGen Pharma Ltd., priority 2022, published 2024).
# Read-outs that look alike come from different tables or passages of the source.
# Assays:
# [1] = room temperature; pH 4.5, 5.5, 6.0 and 7.0 solutions
structure (smiles),measurement,setting,value
CO[C@@]12[C@H](COC(N)=O)C3=C(C(=O)C(C)=C(N)C3=O)N1C[C@@H]1N[C@@H]12 [mitomycin C],time at which MMC was unstable (less than 90% of the initial value),[1],< 24 h
same,time for which MMC was stable (relative concentrations systematically over 90% of the initial concentrations),0.2 mg/ml in 0.9% sodium chloride solution,10 h
same,relative MMC concentration as compared to initial concentration,"after 96 h, these solutions",below 80%
same,time for which MMC was stable (relative concentrations systematically over 90% of the initial concentrations),in water for injections at a concentration of 1 mg/mL,8 h
same,degradation products observed,reconstituted and diluted solutions,below 3%
